Data published in PubChem BioAssay (NCI).
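Five concentrations, 48 hours, 96-well plates. GI50 = concentration required for 50% inhibition of growth. TGI is the concentration that stops growth completely.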

Experiments:
Assay in all cases: NCI tumour cell line growth inhibition, 48 h
SF-539 CNS = system: SF-539 CNS
MDA-MB-468 breast = system: MDA-MB-468 breast
COLO 205 colon = system: COLO 205 colon
BT-549 breast = system: BT-549 breast
SK-OV-3 ovarian = system: SK-OV-3 ovarian
IGROV1 ovarian = system: IGROV1 ovarian
HOP-92 NSCLC = system: HOP-92 NSCLC
PC-3 prostate = system: PC-3 prostate
EKVX NSCLC = system: EKVX NSCLC
U251 CNS = system: U251 CNS
SK-MEL-28 melanoma = system: SK-MEL-28 melanoma
M14 melanoma = system: M14 melanoma
DU-145 prostate = system: DU-145 prostate
NCI-H460 lung = system: NCI-H460 lung
OVCAR-8 ovarian = system: OVCAR-8 ovarian
NCI/ADR-RES ovarian = system: NCI/ADR-RES ovarian
MALME-3M melanoma = system: MALME-3M melanoma
HCT-116 colon = system: HCT-116 colon
KM12 colon = system: KM12 colon
RXF 393 renal = system: RXF 393 renal
SNB-75 CNS = system: SNB-75 CNS
CCRF-CEM leukemia = system: CCRF-CEM leukemia
OVCAR-5 ovarian = system: OVCAR-5 ovarian
MOLT-4 leukemia = system: MOLT-4 leukemia
RPMI-8226 leukemia = system: RPMI-8226 leukemia
MDA-MB-435 = system: MDA-MB-435
OVCAR-4 ovarian = system: OVCAR-4 ovarian
SF-295 CNS = system: SF-295 CNS
SF-268 CNS = system: SF-268 CNS
NCI-H522 lung = system: NCI-H522 lung
SK-MEL-5 melanoma = system: SK-MEL-5 melanoma
SNB-19 CNS = system: SNB-19 CNS
UACC-62 melanoma = system: UACC-62 melanoma
HCT-15 colon = system: HCT-15 colon
UACC-257 melanoma = system: UACC-257 melanoma
NCI-H226 lung = system: NCI-H226 lung
HL-60(TB) leukemia = system: HL-60(TB) leukemia
HCC-2998 colon = system: HCC-2998 colon
MDA-MB-231 breast = system: MDA-MB-231 breast
A498 renal = system: A498 renal
HT29 colon = system: HT29 colon
OVCAR-3 ovarian = system: OVCAR-3 ovarian
MCF7 breast = system: MCF7 breast
SW-620 colon = system: SW-620 colon
TK-10 renal = system: TK-10 renal
SN12C renal = system: SN12C renal
LOX IMVI melanoma = system: LOX IMVI melanoma
CAKI-1 renal = system: CAKI-1 renal
HOP-62 NSCLC = system: HOP-62 NSCLC
ACHN renal = system: ACHN renal
A549 NSCLC = system: A549 NSCLC
NCI-H23 lung = system: NCI-H23 lung
T-47D breast = system: T-47D breast
HS 578T breast = system: HS 578T breast
SK-MEL-2 melanoma = system: SK-MEL-2 melanoma
SR leukemia = system: SR leukemia
UO-31 renal = system: UO-31 renal
K-562 leukemia = system: K-562 leukemia
786-0 renal = system: 786-0 renal

`CCCCN1C(=O)/C(=C\C(=O)c2cc3ccccc3oc2=O)c2ccccc21` was tested, and the GI50 (SF-539 CNS) was 16.2 µM, the TGI (SF-539 CNS) was 30 µM and the GI50 (MDA-MB-468 breast) was 4.5 µM. The TGI (MDA-MB-468 breast) was 17.8 µM, the GI50 (COLO 205 colon) was 17 µM and the TGI (COLO 205 colon) was 31.1 µM. It also gave a GI50 (BT-549 breast) of 19.4 µM, a TGI (BT-549 breast) of 70.1 µM and a GI50 (SK-OV-3 ovarian) of over 100 µM. It also gave a TGI (SK-OV-3 ovarian) of over 100 µM, a GI50 (IGROV1 ovarian) of 24.5 µM and a TGI (IGROV1 ovarian) of 94.8 µM. It also gave a GI50 (HOP-92 NSCLC) of 13 µM, a TGI (HOP-92 NSCLC) of 27.7 µM and a GI50 (PC-3 prostate) of 32.2 µM. It also gave a TGI (PC-3 prostate) of over 100 µM, a GI50 (EKVX NSCLC) of 15.5 µM and a TGI (EKVX NSCLC) of 32 µM. It also gave a GI50 (U251 CNS) of over 100 µM, a TGI (U251 CNS) of over 100 µM and a GI50 (SK-MEL-28 melanoma) of 15.5 µM. For the same compound, the TGI (SK-MEL-28 melanoma) was 29.1 µM, the GI50 (M14 melanoma) was 14.8 µM and the TGI (M14 melanoma) was 29.3 µM. For the same compound, the GI50 (DU-145 prostate) was 16.7 µM, the TGI (DU-145 prostate) was 33.2 µM and the GI50 (NCI-H460 lung) was over 100 µM. It also gave a TGI (NCI-H460 lung) of over 100 µM, a GI50 (OVCAR-8 ovarian) of 18.3 µM and a TGI (OVCAR-8 ovarian) of 47.5 µM. It also gave a GI50 (NCI/ADR-RES ovarian) of 22.9 µM, a TGI (NCI/ADR-RES ovarian) of 64.3 µM and a GI50 (MALME-3M melanoma) of 13.7 µM. It also gave a TGI (MALME-3M melanoma) of 26.7 µM, a GI50 (HCT-116 colon) of 16.3 µM and a TGI (HCT-116 colon) of 31.1 µM. It also gave a GI50 (KM12 colon) of over 100 µM, a TGI (KM12 colon) of over 100 µM and a GI50 (RXF 393 renal) of 15.7 µM. It also gave a TGI (RXF 393 renal) of 29.6 µM, a GI50 (SNB-75 CNS) of 19 µM and a TGI (SNB-75 CNS) of over 100 µM. It also gave a GI50 (CCRF-CEM leukemia) of 4.26 µM, a TGI (CCRF-CEM leukemia) of 24.2 µM and a GI50 (OVCAR-5 ovarian) of 30.6 µM. The TGI (OVCAR-5 ovarian) was over 100 µM, the GI50 (MOLT-4 leukemia) was 22.4 µM and the TGI (MOLT-4 leukemia) was 64 µM. For the same compound, the GI50 (RPMI-8226 leukemia) was 19.9 µM, the TGI (RPMI-8226 leukemia) was 54.4 µM and the GI50 (MDA-MB-435) was 17.6 µM. It also gave a TGI (MDA-MB-435) of 41.6 µM, a GI50 (OVCAR-4 ovarian) of 16.9 µM and a TGI (OVCAR-4 ovarian) of 35.4 µM. It also gave a GI50 (SF-295 CNS) of over 100 µM, a TGI (SF-295 CNS) of over 100 µM and a GI50 (SF-268 CNS) of 16.9 µM. The TGI (SF-268 CNS) was 36.3 µM, the GI50 (NCI-H522 lung) was 14.3 µM and the TGI (NCI-H522 lung) was 28.7 µM. For the same compound, the GI50 (SK-MEL-5 melanoma) was 48.7 µM, the TGI (SK-MEL-5 melanoma) was over 100 µM and the GI50 (SNB-19 CNS) was over 100 µM. It also gave a TGI (SNB-19 CNS) of over 100 µM, a GI50 (UACC-62 melanoma) of 14.6 µM and a TGI (UACC-62 melanoma) of 29.7 µM. The GI50 (HCT-15 colon) was 15.6 µM, the TGI (HCT-15 colon) was 30.7 µM and the GI50 (UACC-257 melanoma) was 14.7 µM. It also gave a TGI (UACC-257 melanoma) of 31.3 µM, a GI50 (NCI-H226 lung) of 14.4 µM and a TGI (NCI-H226 lung) of 31.7 µM. It also gave a GI50 (HL-60(TB) leukemia) of 3.06 µM, a TGI (HL-60(TB) leukemia) of 11.9 µM and a GI50 (HCC-2998 colon) of over 100 µM. The TGI (HCC-2998 colon) was over 100 µM, the GI50 (MDA-MB-231 breast) was 14.3 µM and the TGI (MDA-MB-231 breast) was 27.6 µM. It also gave a GI50 (A498 renal) of over 100 µM, a TGI (A498 renal) of over 100 µM and a GI50 (HT29 colon) of 20.3 µM. The TGI (HT29 colon) was 41.2 µM, the GI50 (OVCAR-3 ovarian) was 15.2 µM and the TGI (OVCAR-3 ovarian) was 29.7 µM. It also gave a GI50 (MCF7 breast) of 12.6 µM, a TGI (MCF7 breast) of 28.7 µM and a GI50 (SW-620 colon) of 14.3 µM. For the same compound, the TGI (SW-620 colon) was 29.7 µM, the GI50 (TK-10 renal) was 20.9 µM and the TGI (TK-10 renal) was 35.8 µM. For the same compound, the GI50 (SN12C renal) was 14.7 µM, the TGI (SN12C renal) was 30 µM and the GI50 (LOX IMVI melanoma) was 15.2 µM. It also gave a TGI (LOX IMVI melanoma) of 28.7 µM, a GI50 (CAKI-1 renal) of 14.2 µM and a TGI (CAKI-1 renal) of 27.8 µM. For the same compound, the GI50 (HOP-62 NSCLC) was over 100 µM, the TGI (HOP-62 NSCLC) was over 100 µM and the GI50 (ACHN renal) was 13.4 µM. For the same compound, the TGI (ACHN renal) was 26.1 µM, the GI50 (A549 NSCLC) was over 100 µM and the TGI (A549 NSCLC) was over 100 µM. The GI50 (NCI-H23 lung) was 27.4 µM, the TGI (NCI-H23 lung) was over 100 µM and the GI50 (T-47D breast) was 14 µM. It also gave a TGI (T-47D breast) of 28.7 µM, a GI50 (HS 578T breast) of 20.7 µM and a TGI (HS 578T breast) of over 100 µM. It also gave a GI50 (SK-MEL-2 melanoma) of 52 µM, a TGI (SK-MEL-2 melanoma) of over 100 µM and a GI50 (SR leukemia) of 23 µM. For the same compound, the TGI (SR leukemia) was 86.1 µM, the GI50 (UO-31 renal) was 11.4 µM and the TGI (UO-31 renal) was 23.7 µM. For the same compound, the GI50 (K-562 leukemia) was 11.6 µM, the TGI (K-562 leukemia) was 84.7 µM and the GI50 (786-0 renal) was 18 µM. For the same compound, the TGI (786-0 renal) was 31.9 µM.
